Assay results reported in publication PMC2809098, “HH Domain of Alzheimer’s Disease Aβ Provides Structural Basis for Neuronal Binding in PC12 and Mouse Cortical/Hippocampal Neurons” (PLoS ONE, 2010).
No end group written: not given here.

What was measured:
immobilized Aβ40 fibrils = biological target: T1, immobilized Aβ40 fibrils (Homo sapiens, UniProt P05067); test: Surface plasmon resonance binding to immobilized Aβ40 fibrils; conditions: read-out: ka
T1 construct: made in house; host or cells: chemical solid-phase peptide synthesis (CEM Liberty synthesizer)
T1 sequence (P05067 672-711): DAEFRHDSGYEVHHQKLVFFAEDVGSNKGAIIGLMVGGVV
Experimental: Surface Plasmon Resonance (SPR) analyses were performed at 25 °C using Biacore 3000 optical biosensors with research grade CM5 chips (Biacore, Uppsala, Sweden). […] The binding sensograms were recorded following the injection of freshly prepared peptides over the immobilized surface for 5 min at a flow rate of 30 µl/min. The dissociation profile was monitored for about 15 min, and then the surface was regenerated with two short 8 sec injections of 50 mM NaOH. Extensive validation studies were performed to ensure that Aβ fibrils immobilized on the chip retained their binding characteristics even after the regeneration procedure. Kinetic data analysis was performed using Biaevaluation software (Version 3.2) provided by Biacore Inc., Uppsala, Sweden.

[1] = system: amyloid plaques in APP, PS1 mouse brain sections; test: Labeling of amyloid plaques in brain sections with radioiodinated peptides, emulsion autoradiography; format: binding; conditions: 100 pM radioiodinated peptide, 3 hrs, unfixed 15 µm cryosections, 20-month old APP, one day of exposure
Experimental: HPLC-purified ^125I-Aβ40, ^125I-Aβ40 H13G, ^125I-Aβ40 H13R, ^125I-Aβ40 H13,14G or buffer was incubated in vitro with unfixed cryosections (15 µm) of brain from a 20-month old APP, PS1 AD transgenic mouse using the same procedure used previously. The rodent Aβ was not evaluated because the peptide lacks a tyrosine amino acid for radioiodination. Briefly, the sections were incubated for 3 hrs with 100 pM radioiodinated peptide or alone in 250 µl of TBS (50 mM Tris HCl, 138 mM sodium chloride, pH 7.0) containing 0.1% BSA, 0.6 mg/ml magnesium chloride, 0.04 mg/ml bacitracin, 0.002 mg/ml chymostatin, and 0.004 mg/ml leupeptin. After rinsing and air drying overnight at 4°C., the sections were fixed in formalin for 5 min and then underwent immunoperoxidase histochemistry (IH) for amyloid using an anti-Aβ monoclonal mouse antibody (4G8, 1∶1000, Signet Laboratories, Dedham, MA). Next, the sections were dipped in an autoradiographic emulsion (Type NTB-3, Kodak, Rochester, NY) for direct comparison of ^125I-peptide labeling to anti-Aβ IH. The slides were dipped in emulsion, exposed for various durations, and developed according to the instructions. The sections were dehydrated with successive changes of ethanol and xylene and then coverslipped.

Row | Substance | kon at 75 µM (immobilized Aβ40 fibrils) | labeling of amyloid plaques [1]
1 | DAEFGHDSGFEVRHQKLVFFAEDVGSNKGAIIGLMVGGVV [Aβ40 R5G, Y10F, H13R, Aβ1-40 R5G, Y10F, H13R] | 31 M⁻¹ s⁻¹ | 
2 | ^125I-Aβ40 H13,14G: radioiodinated Aβ40 H13,14G |  | labeled amyloid plaques equally well
3 | ^125I-Aβ40 H13G |  | labeled amyloid plaques equally well
4 | ^125I-Aβ40 H13R |  | labeled amyloid plaques equally well
5 | ^125I-Aβ40: radioiodinated Aβ40 [reference compound] |  | labeled amyloid plaques equally well
